In the supplement of paper PMC4862054:
Where “and” joins values, the source holds several entries; their conditions need not be identical. Identical values can stand only once.

The compounds below were run on CAL-51 (assay: normalised viability (% of control), CellTiter-Blue; higher = more viable cells (about 100 = DMSO control)). Conditions: 100 nM; incubation time: 72 h.
How it was run: (§1)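 Breast cancer cell lines in 20 µl suspension were seeded onto 384-well plates pre-loaded with compound dissolved in 5 µl medium, then incubated 72 h. CellTiter-Blue reagent (2.5 µl) was added for 2 h at 37 °C and fluorescence read at 560/590 nm. Each plate was normalised to vehicle (100) and a positive kill control (0), with Z'-factor quality control. The value is normalised viability at one listed concentration of the series.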

| Compound | normalised viability [%] |
| --- | --- |
| Nc1ccccc1NC(=O)c1ccc(CNC(=O)OCc2cccnc2)cc1 [Entinostat] | 109 |
| C=CC(=O)Nc1cc2c(Nc3ccc(F)c(Cl)c3)ncnc2cc1OCCCN1CCOCC1 [Canertinib] | 105 |
| CC[C@H](Nc1ncnc2[nH]cnc12)c1nc2cccc(F)c2c(=O)n1-c1ccccc1 [CAL-101] | 98 |

The compounds below were run on CAL-85-1 in the same assay as above. Conditions: 0.075 nM; incubation time: 72 h.
How it was run: as §1

| Compound | normalised viability [%] |
| --- | --- |
| CC(=O)Nc1cccc(-n2c(=O)n(C3CC3)c(=O)c3c(Nc4ccc(I)cc4F)n(C)c(=O)c(C)c32)c1 | 102 |

Same assay, conditions: 0.297 nM; incubation time: 72 h

| Compound | normalised viability [%] |
| --- | --- |
| CCN(CC)CCCC(C)Nc1c2ccc(Cl)cc2nc2ccc(OC)cc12 (stereo unspecified) [Mepacrine] | 114 |

Same assay, conditions: 0.3 nM; incubation time: 72 h

| Compound | normalised viability [%] |
| --- | --- |
| O=C(/C=C/c1cccnc1)NCCCCC1CCN(C(=O)c2ccccc2)CC1 [FK-866] | 103 |
| CC[C@@H]1C(=O)N(C)c2cnc(Nc3ccc(C(=O)NC4CCN(C)CC4)cc3OC)nc2N1C1CCCC1 [BI 2536] | 101 |

Same assay, conditions: 0.75 nM; incubation time: 72 h

| Compound | normalised viability [%] |
| --- | --- |
| CC(=O)Nc1cccc(-n2c(=O)n(C3CC3)c(=O)c3c(Nc4ccc(I)cc4F)n(C)c(=O)c(C)c32)c1 | 93.6 |

Same assay, conditions: 2.5 nM; incubation time: 72 h

| Compound | normalised viability [%] |
| --- | --- |
| CC(=O)Nc1cccc(-n2c(=O)n(C3CC3)c(=O)c3c(Nc4ccc(I)cc4F)n(C)c(=O)c(C)c32)c1 | 97 |

Same assay, conditions: 2.97 nM; incubation time: 72 h

| Compound | normalised viability [%] |
| --- | --- |
| CCN(CC)CCCC(C)Nc1c2ccc(Cl)cc2nc2ccc(OC)cc12 (stereo unspecified) [Mepacrine] | 95.7 |

Same assay, conditions: 3 nM; incubation time: 72 h

| Compound | normalised viability |
| --- | --- |
| Nc1ncn([C@H]2C[C@H](O)[C@@H](CO)O2)c(=O)n1 [Decitabine] | 91.9% and 103% |
| O=C(/C=C/c1cccnc1)NCCCCC1CCN(C(=O)c2ccccc2)CC1 [FK-866] | 97.7% |
| CC[C@@H]1C(=O)N(C)c2cnc(Nc3ccc(C(=O)NC4CCN(C)CC4)cc3OC)nc2N1C1CCCC1 [BI 2536] | 79.7% |
| CCN(CC)CCCC(C)Nc1c2ccc(Cl)cc2nc2ccc(OC)cc12 (stereo unspecified) [Mepacrine] | 94.3% |
| Nc1nc2[nH]cc(CCc3ccc(C(=O)N[C@@H](CCC(=O)O)C(=O)O)cc3)c2c(=O)[nH]1 [Pemetrexed] | 99.6% |
| COc1cc([C@@H]2c3cc4c(cc3[C@@H](O[C@@H]3O[C@@H]5CO[C@@H](c6cccs6)O[C@H]5[C@H](O)[C@H]3O)[C@H]3COC(=O)[C@H]23)OCO4)cc(OC)c1O [Teniposide] | 103% |
| COc1cc2nccc(Oc3ccc(NC(=O)Nc4cc(C)on4)c(Cl)c3)c2cc1OC [Tivozanib] | 100% |
| O=C(Cc1ccc(-c2ccc(OCCN3CCOCC3)cc2)cn1)NCc1ccccc1 [KX2-391] | 92.5% |
| Nc1ccccc1NC(=O)c1ccc(CNC(=O)OCc2cccnc2)cc1 [Entinostat] | 98.1% |
| C=CC(=O)Nc1cc2c(Nc3ccc(F)c(Cl)c3)ncnc2cc1OCCCN1CCOCC1 [Canertinib] | 82.5% |
| CC[C@H](Nc1ncnc2[nH]cnc12)c1nc2cccc(F)c2c(=O)n1-c1ccccc1 [CAL-101] | 88.6% |

Same assay, conditions: 9.9 nM; incubation time: 72 h

| Compound | normalised viability [%] |
| --- | --- |
| CCN(CC)CCCC(C)Nc1c2ccc(Cl)cc2nc2ccc(OC)cc12 (stereo unspecified) [Mepacrine] | 98.9 |

Same assay, conditions: 10 nM; incubation time: 72 h

| Compound | normalised viability [%] |
| --- | --- |
| O=C(/C=C/c1cccnc1)NCCCCC1CCN(C(=O)c2ccccc2)CC1 [FK-866] | 91.6 |
| CC[C@@H]1C(=O)N(C)c2cnc(Nc3ccc(C(=O)NC4CCN(C)CC4)cc3OC)nc2N1C1CCCC1 [BI 2536] | 40.5 |

Same assay, conditions: 30 nM; incubation time: 72 h

| Compound | normalised viability |
| --- | --- |
| Nc1ncn([C@H]2C[C@H](O)[C@@H](CO)O2)c(=O)n1 [Decitabine] | 83.4% and 91.2% |
| CCN(CC)CCCC(C)Nc1c2ccc(Cl)cc2nc2ccc(OC)cc12 (stereo unspecified) [Mepacrine] | 88.1% |
| Nc1nc2[nH]cc(CCc3ccc(C(=O)N[C@@H](CCC(=O)O)C(=O)O)cc3)c2c(=O)[nH]1 [Pemetrexed] | 91% |
| COc1cc([C@@H]2c3cc4c(cc3[C@@H](O[C@@H]3O[C@@H]5CO[C@@H](c6cccs6)O[C@H]5[C@H](O)[C@H]3O)[C@H]3COC(=O)[C@H]23)OCO4)cc(OC)c1O [Teniposide] | 89.7% |
| COc1cc2nccc(Oc3ccc(NC(=O)Nc4cc(C)on4)c(Cl)c3)c2cc1OC [Tivozanib] | 107% |
| O=C(Cc1ccc(-c2ccc(OCCN3CCOCC3)cc2)cn1)NCc1ccccc1 [KX2-391] | 65.1% |
| Nc1ccccc1NC(=O)c1ccc(CNC(=O)OCc2cccnc2)cc1 [Entinostat] | 100% |
| C=CC(=O)Nc1cc2c(Nc3ccc(F)c(Cl)c3)ncnc2cc1OCCCN1CCOCC1 [Canertinib] | 67% |
| CC[C@H](Nc1ncnc2[nH]cnc12)c1nc2cccc(F)c2c(=O)n1-c1ccccc1 [CAL-101] | 75.9% |

Same assay, conditions: 100 nM; incubation time: 72 h

| Compound | normalised viability |
| --- | --- |
| Nc1ncn([C@H]2C[C@H](O)[C@@H](CO)O2)c(=O)n1 [Decitabine] | 93.6% and 93.9% |
| CCN(CC)CCCC(C)Nc1c2ccc(Cl)cc2nc2ccc(OC)cc12 (stereo unspecified) [Mepacrine] | 105% |
| Nc1nc2[nH]cc(CCc3ccc(C(=O)N[C@@H](CCC(=O)O)C(=O)O)cc3)c2c(=O)[nH]1 [Pemetrexed] | 101% |
| COc1cc([C@@H]2c3cc4c(cc3[C@@H](O[C@@H]3O[C@@H]5CO[C@@H](c6cccs6)O[C@H]5[C@H](O)[C@H]3O)[C@H]3COC(=O)[C@H]23)OCO4)cc(OC)c1O [Teniposide] | 94.5% |
| COc1cc2nccc(Oc3ccc(NC(=O)Nc4cc(C)on4)c(Cl)c3)c2cc1OC [Tivozanib] | 103% |
| O=C(Cc1ccc(-c2ccc(OCCN3CCOCC3)cc2)cn1)NCc1ccccc1 [KX2-391] | 34.2% |
| Nc1ccccc1NC(=O)c1ccc(CNC(=O)OCc2cccnc2)cc1 [Entinostat] | 99.6% |
| C=CC(=O)Nc1cc2c(Nc3ccc(F)c(Cl)c3)ncnc2cc1OCCCN1CCOCC1 [Canertinib] | 64.2% |
| CC[C@H](Nc1ncnc2[nH]cnc12)c1nc2cccc(F)c2c(=O)n1-c1ccccc1 [CAL-101] | 78% |

The compounds below were run on DU-4475 in the same assay as above. Conditions: 0.075 nM; incubation time: 72 h.
How it was run: as §1

| Compound | normalised viability [%] |
| --- | --- |
| CC(=O)Nc1cccc(-n2c(=O)n(C3CC3)c(=O)c3c(Nc4ccc(I)cc4F)n(C)c(=O)c(C)c32)c1 | 117 |

Same assay, conditions: 0.297 nM; incubation time: 72 h

| Compound | normalised viability [%] |
| --- | --- |
| CCN(CC)CCCC(C)Nc1c2ccc(Cl)cc2nc2ccc(OC)cc12 (stereo unspecified) [Mepacrine] | 112 |

Same assay, conditions: 0.3 nM; incubation time: 72 h

| Compound | normalised viability [%] |
| --- | --- |
| O=C(/C=C/c1cccnc1)NCCCCC1CCN(C(=O)c2ccccc2)CC1 [FK-866] | 104 |
| CC[C@@H]1C(=O)N(C)c2cnc(Nc3ccc(C(=O)NC4CCN(C)CC4)cc3OC)nc2N1C1CCCC1 [BI 2536] | 105 |

Same assay, conditions: 0.75 nM; incubation time: 72 h

| Compound | normalised viability [%] |
| --- | --- |
| CC(=O)Nc1cccc(-n2c(=O)n(C3CC3)c(=O)c3c(Nc4ccc(I)cc4F)n(C)c(=O)c(C)c32)c1 | 59.7 |

Same assay, conditions: 2.5 nM; incubation time: 72 h

| Compound | normalised viability [%] |
| --- | --- |
| CC(=O)Nc1cccc(-n2c(=O)n(C3CC3)c(=O)c3c(Nc4ccc(I)cc4F)n(C)c(=O)c(C)c32)c1 | 10.8 |

Same assay, conditions: 2.97 nM; incubation time: 72 h

| Compound | normalised viability [%] |
| --- | --- |
| CCN(CC)CCCC(C)Nc1c2ccc(Cl)cc2nc2ccc(OC)cc12 (stereo unspecified) [Mepacrine] | 88 |

Same assay, conditions: 3 nM; incubation time: 72 h

| Compound | normalised viability |
| --- | --- |
| Nc1ncn([C@H]2C[C@H](O)[C@@H](CO)O2)c(=O)n1 [Decitabine] | 110% and 98.7% |
| O=C(/C=C/c1cccnc1)NCCCCC1CCN(C(=O)c2ccccc2)CC1 [FK-866] | 77.2% |
